# Patent publication US10023558B2, “Compounds” (CHIESI FARMACEUTICI S.P.A., priority 2016, dated 2018)
# Molecular target: T1, human neutrophil elastase (HNE) (Homo sapiens, UniProt P08246)
# T1 construct: purchased Sigma E8140
# T1 sequence (P08246 30-247 limits assumed): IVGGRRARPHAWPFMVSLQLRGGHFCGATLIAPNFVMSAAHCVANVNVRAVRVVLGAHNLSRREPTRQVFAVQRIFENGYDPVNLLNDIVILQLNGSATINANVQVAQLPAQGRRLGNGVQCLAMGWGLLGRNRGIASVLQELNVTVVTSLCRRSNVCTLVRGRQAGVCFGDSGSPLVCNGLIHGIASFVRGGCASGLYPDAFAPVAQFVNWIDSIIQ
# Experiment: HNE Enzyme Assay (fluorogenic peptide substrate MeOSuc-Ala-Ala-Pro-Val-AMC)
# Assay type: biochemical
# Conditions: human leukocyte elastase 0.00072 U/mL, substrate 100 μM, 25° C., 30 minutes, at least two separate experiments; read-out: HNE inhibition (IC50 values)
# Method in brief: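 Human leukocyte elastase (0.00072 U/mL) with 100 μM MeOSuc-AAPV-AMC in Tris pH 7.5 buffer with NaCl, CaCl2, Brij-35, 1% DMSO, 30 min at 25° C, stopped with soybean trypsin inhibitor. AMC fluorescence (ex 380/em 460 nm); IC50 from concentration-response as % inhibition of control, at least two experiments.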
row,Compound,IC50 [nM]
1,"Cc1c(-c2ccnn2-c2ccc(C#N)cc2)n(C(=O)NC(C)C2CC[N+](C)(C)CC2)c(=O)n1-c1cccc(C(F)(F)F)c1 (centres unmarked) [Example 35, 4-(1-{[5-[2-(4-Cyano-phenyl)-2H-pyrazol-3-yl]-4-methyl-2-oxo-3-(3-trifluoromethyl-phenyl)-2,3-dihydro-imidazole-1-carbonyl]-amino}-ethyl)-1,1-dimethyl-piperidinium benzene sulfonate]",< 1
2,"Cc1c(-c2ccnn2-c2ccc(C#N)cc2)n(C(=O)NC2CCN(C(=O)CCN(C)C)CC2)c(=O)n1-c1cccc(C(F)(F)F)c1 [Example 15, 5-[2-(4-Cyano-phenyl)-2H-pyrazol-3-yl]-4-methyl-2-oxo-3-(3-trifluoromethyl-phenyl)-2,3-dihydro-imidazole-1-carboxylic acid [1-(3-dimethylamino-propionyl)-piperidin-4-yl]-amide]",< 1
3,"Cc1c(-c2ccnn2-c2ccc(C#N)cc2)n(C(=O)N[C@H]2CC[C@H](CN(C)C)CC2)c(=O)n1-c1cccc(C(F)(F)F)c1 [Example 1, 5-[2-(4-Cyano-phenyl)-2H-pyrazol-3-yl]-4-methyl-2-oxo-3-(3-trifluoromethyl-phenyl)-2,3-dihydro-imidazole-1-carboxylic acid trans-(4-dimethylaminomethyl-cyclohexyl)-amide]",< 1
4,"Cc1c(-c2ccnn2-c2ccc(C#N)cc2)n(C(=O)N[C@@H]2C[C@@H]3CN(C(=O)OC(C)(C)C)C[C@@H]3C2)c(=O)n1-c1cccc(C(F)(F)F)c1 [Example 10, (3aS,5R,6aR)-5-{[5-[2-(4-Cyano-phenyl)-2H-pyrazol-3-yl]-4-methyl-2-oxo-3-(3-trifluoromethyl-phenyl)-2,3-dihydro-imidazole-1-carbonyl]-amino}-hexahydro-cyclopenta[c]pyrrole-2-carboxylic acid tert-butyl ester]",< 1
5,"Cc1c(-c2ccnn2-c2ccc(C#N)cc2)n(C(=O)N[C@@H](C)C(=O)N2CC[N+](C)(C)CC2)c(=O)n1-c1cccc(C(F)(F)F)c1 [Example 50, 4-((S)-2-{[5-[2-(4-Cyano-phenyl)-2H-pyrazol-3-yl]-4-methyl-2-oxo-3-(3-trifluoromethyl-phenyl)-2,3-dihydro-imidazole-1-carbonyl]-amino}-propionyl)-1,1-dimethyl-piperazin-1-ium benzene sulfonate]",< 1
6,"Cc1c(-c2ccnn2-c2ccc(C#N)cc2)n(C(=O)N[C@@H](C)c2cc[n+](C)cc2)c(=O)n1-c1cccc(C(F)(F)F)c1 [Example 38, 4-((S)-1-{[5-[2-(4-Cyano-phenyl)-2H-pyrazol-3-yl]-4-methyl-2-oxo-3-(3-trifluoromethyl-phenyl)-2,3-dihydro-imidazole-1-carbonyl]-amino}-ethyl)-1-methyl-pyridinium benzene sulfonate]",< 1
7,"Cc1c(-c2ccnn2-c2ccc(C#N)cc2)n(C(=O)N[C@H]2C[C@@H]3CN(C(=O)OC(C)(C)C)C[C@@H]3C2)c(=O)n1-c1cccc(C(F)(F)F)c1 [Example 12, (3aR,5S,6aS)-5-{[5-[2-(4-Cyano-phenyl)-2H-pyrazol-3-yl]-4-methyl-2-oxo-3-(3-trifluoromethyl-phenyl)-2,3-dihydro-imidazole-1-carbonyl]-amino}-hexahydro-cyclopenta[c]pyrrole-2-carboxylic acid tert-butyl ester]",< 1
8,"Cc1c(-c2ccnn2-c2ccc(C#N)cc2)n(C(=O)N[C@H]2CC[C@H](C[N+](C)(C)Cc3ccccc3)CC2)c(=O)n1-c1cccc(C(F)(F)F)c1 [Example 30, Benzyl-(trans-4-{[5-[2-(4-cyano-phenyl)-2H-pyrazol-3-yl]-4-methyl-2-oxo-3-(3-trifluoromethyl-phenyl)-2,3-dihydro-imidazole-1-carbonyl]-amino}-cyclohexylmethyl)-dimethyl-ammonium bromide]",< 1
9,"Cc1c(-c2ccnn2-c2ccc(C#N)cc2)n(C(=O)NC2CCN(C(=O)CN(C)C)CC2)c(=O)n1-c1cccc(C(F)(F)F)c1 [Example 17, 5-[2-(4-Cyano-phenyl)-2H-pyrazol-3-yl]-4-methyl-2-oxo-3-(3-trifluoromethyl-phenyl)-2,3-dihydro-imidazole-1-carboxylic acid [1-(2-dimethylamino-acetyl)-piperidin-4-yl]-amide]",< 1
10,"Cc1c(-c2ccnn2-c2ccc(C#N)cc2)n(C(=O)N[C@H]2CC[C@@H]([N+](C)(C)Cc3ccccc3)CC2)c(=O)n1-c1cccc(C(F)(F)F)c1 [Example 46, Benzyl-(cis-4-{[5-[2-(4-cyano-phenyl)-2H-pyrazol-3-yl]-4-methyl-2-oxo-3-(3-trifluoromethyl-phenyl)-2,3-dihydro-imidazole-1-carbonyl]-amino}-cyclohexyl)-dimethyl-ammonium bromide]",1 to 10
11,"CC[N+](C)(C)[C@H]1CC[C@@H](NC(=O)n2c(-c3ccnn3-c3ccc(C#N)cc3)c(C)n(-c3cccc(C(F)(F)F)c3)c2=O)CC1 [Example 48, (Cis-4-{[5-[2-(4-cyano-phenyl)-2H-pyrazol-3-yl]-4-methyl-2-oxo-3-(3-trifluoromethyl-phenyl)-2,3-dihydro-imidazole-1-carbonyl]-amino}-cyclohexyl)-ethyl-dimethyl-ammonium benzene sulfonate]",1 to 10
12,"Cc1c(-c2ccnn2-c2ccc(C#N)cc2)n(C(=O)NC2CCN(C(=O)OCc3ccccc3)CC2)c(=O)n1-c1cccc(C(F)(F)F)c1 [Example 3, 4-{[5-[2-(4-Cyano-phenyl)-2H-pyrazol-3-yl]-4-methyl-2-oxo-3-(3-trifluoromethyl-phenyl)-2,3-dihydro-imidazole-1-carbonyl]-amino}-piperidine-1-carboxylic acid benzyl ester]",< 1
13,"Cc1c(-c2ccnn2-c2ccc(C#N)cc2)n(C(=O)NC2(c3ncc(CN(C)C)o3)CC2)c(=O)n1-c1cccc(C(F)(F)F)c1 [Example 23, 5-[2-(4-Cyano-phenyl)-2H-pyrazol-3-yl]-4-methyl-2-oxo-3-(3-trifluoromethyl-phenyl)-2,3-dihydro-imidazole-1-carboxylic acid [1-(5-dimethylaminomethyl-oxazol-2-yl)-cyclopropyl]-amide]",< 1

# Second part, the molecule after the results:
row,IC50 [nM],Compound
1,< 1,"Cc1c(-c2ccnn2-c2ccc(C#N)cc2)n(C(=O)NC(C)c2nc(C[N+](C)(C)C)cs2)c(=O)n1-c1cccc(C(F)(F)F)c1 (racemic) [Example 85, ±[2-(1-{[5-[2-(4-Cyano-phenyl)-2H-pyrazol-3-yl]-4-methyl-2-oxo-3-(3-trifluoromethyl-phenyl)-2,3-dihydro-imidazole-1-carbonyl]-amino}-ethyl)-thiazol-4-ylmethyl]-trimethyl-ammonium benzene sulfonate]"
2,< 1,"Cc1c(-c2ccnn2-c2ccc(C#N)cc2)n(C(=O)NC2(C)CCN(C(=O)C[N+](C)(C)C)CC2)c(=O)n1-c1cccc(C(F)(F)F)c1 [Example 84, [2-(4-{[5-[2-(4-Cyano-phenyl)-2H-pyrazol-3-yl]-4-methyl-2-oxo-3-(3-trifluoromethyl-phenyl)-2,3-dihydro-imidazole-1-carbonyl]-amino}-4-methyl-piperidin-1-yl)-2-oxo-ethyl]-trimethyl-ammonium benzene sulfonate]"
3,< 1,"Cc1c(-c2ccnn2-c2ccc(C#N)cc2)n(C(=O)NC2CC3(CC[N+](C)(C)CC3)C2)c(=O)n1-c1cccc(C(F)(F)F)c1 [Example 51, 2-{[5-[2-(4-Cyano-phenyl)-2H-pyrazol-3-yl]-4-methyl-2-oxo-3-(3-trifluoromethyl-phenyl)-2,3-dihydro-imidazole-1-carbonyl]-amino}-7,7-dimethyl-7-azonia-spiro[3.5]nonane benzene sulfonate]"
4,< 1,"Cc1c(-c2ccnn2-c2ccc(C#N)cc2)n(C(=O)N[C@@H](C)C(=O)NC2CC[N+](C)(C)CC2)c(=O)n1-c1cccc(C(F)(F)F)c1 [Example 57, 4-((S)-2-{[5-[2-(4-Cyano-phenyl)-2H-pyrazol-3-yl]-4-methyl-2-oxo-3-(3-trifluoromethyl-phenyl)-2,3-dihydro-imidazole-1-carbonyl]-amino}-propionylamino)-1,1-dimethyl-piperidinium benzene sulfonate]"
5,< 1,"Cc1c(-c2ccnn2-c2ccc(C#N)cc2)n(C(=O)N[C@@H](C)C(=O)N(C)C2CC[N+](C)(C)CC2)c(=O)n1-c1cccc(C(F)(F)F)c1 [Example 91, 4-[((S)-2-{[5-[2-(4-Cyano-phenyl)-2H-pyrazol-3-yl]-4-methyl-2-oxo-3-(3-trifluoromethyl-phenyl)-2,3-dihydro-imidazole-1-carbonyl]-amino}-propionyl)-methyl-amino]-1,1-dimethyl-piperidinium benzene sulfonate]"
6,1 to 10,"CC[N+](C)(C)C[C@H]1CC[C@@H](NC(=O)n2c(-c3ccnn3-c3ccc(C#N)cc3)c(C)n(-c3cccc(C(F)(F)F)c3)c2=O)CC1 [Example 55, (Cis-4-{[5-[2-(4-cyano-phenyl)-2H-pyrazol-3-yl]-4-methyl-2-oxo-3-(3-trifluoromethyl-phenyl)-2,3-dihydro-imidazole-1-carbonyl]-amino}-cyclohexylmethyl)-ethyl-dimethyl-ammonium benzene sulfonate]"
7,< 1,"Cc1c(-c2ccnn2-c2ccc(C#N)cc2)n(C(=O)N[C@H]2CC[C@H](C(=O)NCC[N+](C)(C)C)CC2)c(=O)n1-c1cccc(C(F)(F)F)c1 [Example 77, {2-[(Trans-4-{[5-[2-(4-cyano-phenyl)-2H-pyrazol-3-yl]-4-methyl-2-oxo-3-(3-trifluoromethyl-phenyl)-2,3-dihydro-imidazole-1-carbonyl]-amino}-cyclohexanecarbonyl)-amino]-ethyl}-trimethyl-ammonium benzene sulfonate]"
